Data taken from US11000555B2, “Method for preparing a limax compound and therapeutic use thereof” (GUANGXI JIUFU BIOTECHNOLOGY CO., LTD, priority 2017, dated 2021).
Like-named read-outs stand apart in the source and are kept apart here. Marks after values point to notes of the source that are not given here.

How the values were obtained:
[1] = test system: mice; experiment: Mouse spontaneous activity test; assay type: in vivo, Kunming mice
Method: Forty Kunming mice, half males and half females, were fasted for 12 h but free to drink water. The mice were randomly divided into four groups: a blank control group, a low does Compound group (0.4 g/kg, ig), a high dose Compound group (0.8 g/kg, ig) and a positive drug control group (Estazolam, 2 mg/kg). The mice were placed into the YLS-1A multifunctional recorder for spontaneous activities of small animals. After 5 minutes of adaptation, the number of the mice's spontaneous activities before administration were recorded, and the recording lasted for 10 minutes. The room was kept quiet during recording, at a room temperature of 20-24° C. After this, each group of mice was administered according to the above doses, and the number of spontaneous activities within 10 min were recorded 45 min later. The blank control group was given the same volume of normal saline (ig).

[2] = test system: mice; experiment: Inducing the mice to sleep by a subthreshold dose of pentobarbital sodium; assay type: in vivo, Kunming mice; details: for Number of the mice showing disappearance of righting reflex: pentobarbital sodium 30 mg/kg ip, n = 20
Method: Eighty Kunming mice, half males and half females, were fasted for 12 h but free to drink water. The mice were randomly divided into four groups: a blank control group, a low does Compound group (0.4 g/kg, ig), a high dose Compound group (0.8 g/kg, ig) and a positive drug control group (Estazolam, 2 mg/kg). each group of mice was administered according to the above doses (ig), and the blank control group was given the same volume of normal saline. Forty-five minutes later, each mouse was given (ip) 30 mg/kg pentobarbital sodium, and the number of mice falling asleep within 15 min was recorded by taking the absence of righting reflex more than 1 min as the indicator of falling asleep.

[3] = test system: mice; details: mouse, in vivo; for Duration of mice staying in companion box: both, Kunming
Description: A conditioned place preference box was composed of black and white cuboids (30 cm×15 cm×15 cm), a movable partition plate is arranged in the middle of the box body to divide the box into two cuboids of the same volume, and the rat and mice can freely move from one cuboid to another when the partition plate is removed. Inner surfaces of one cuboid of the box body except the glass panel is painted black, the bottom plate is made to be a rough surface by using a soft blanket, the other cuboid of the box body except the glass surface is painted white, the bottom plate is made to be a smooth surface, and the whole experimental box has visual and tactile cues.
Mice were tested for natural preference one day prior to dosing to eliminate mice with significant preference on one side of the box and to exclude the effects of unconditioned place preference on the experimental results.
Each group of animals was administered twice daily at an interval of 8 hours (8:00, 16:00). […] The mice were placed in the white cuboid, which was the non-preferred side, after administration, and placed in the black cuboid, which was the preferred side, after administration of normal saline. The mice were kept in the box for 45 min, trained for 6 days. The place preference test was performed 24 h after the last administration. The partition plate of the preferred cuboid was removed, the mice were placed in the middle of the box one by one and observed for 15 minutes, and the duration of each of the mice staying in each cuboid was recorded on the basis of the positions of their heads.

[4] = test system: mice; experiment: Acetic acid writhing test of mice; assay type: in vivo, Kunming mice; details: for Times of writhing: 0.6% acetic acid ip, in 20 min
Method: Forty Kunming mice, male, were fasted for 12 h before the experiment but free to drink water. They were randomly divided into 4 groups: a blank control group, a low dose Compound group, a high dose Compound group, and a positive control group. […] The mice were administered (ig) at a low dose (0.4 g/kg) and a high dose (0.8 g/kg) of the compound, at a volume of 0.2 ml per 10 g body weight. The positive control group was administered (ip) methadone (20 mg/kg) and the blank control group was given (ig) the same volume of normal saline. Forty-five minutes after administration, each mouse was given (ip) 0.6% acetic acid, 0.2 ml for each. The mice were then observed for writhing reaction, with abdominal contraction and hind limb extension or hip elevation regarded as positive. Times of writhing in 20 min were recorded starting from 5 min after acetic acid injection. The analgesic effect was evaluated by taking completely inhibiting writhing reaction induced by acetic acid as an indicator.

[5] = test system: mice; experiment: Oral acute toxicity test of mice (maximum dose method); assay type: in vivo, Kunming mice; details: for Weight after dosing / Weight change: 14 days observation; for Weight before dosing: test group
Method: The test group was given 10% the compound, 0.3 ml/10 g per dose, and the control group was given the same volume of vegetable oil. Each group was administered (ig) twice a day at 8:00 and 18:00, respectively, and fasting was completed three hours after the administration (ig). All the mice received the same volume of 0.3 ml/10 g per dose, amounting to 6 g/kg BW over 24 hours. The mice were given free access to water and food after administration. The body weight, food intake, water intake, general physiological indicators, behaviors and activities, psychological status and survival status were recorded for 14 days in consecutive, 3 times a day, after several times of observation within the 24 hours that followed the administration.

[6] = Solubility; assay type: physicochemical
[7] = test system: mice; experiment: Hot plate test of analgesic effect; assay type: in vivo, Kunming mice; details: for Pain threshold / Pain threshold before administration: hot plate 55° C.; for Pain threshold before administration: base line
Method: Kunming mice, female, were selected. And a selection among them was conducted prior to the test. The hot plate was adjusted to 55° C.±0.5° C., the female mice were placed on the hot plate, and the duration (in seconds) required from placing the mice on the hot plate until the mice licked their feet as the normal pain threshold of the mice. All those who licked their feet within 5 s or after 30 s and jumped were abandoned. Forty qualified mice were selected and randomly divided into 4 groups: a blank control group, a low dose Compound group, a high dose Compound group, and a positive control group, 10 mice per group. The normal pain threshold of each mouse was measured repeatedly, and the average of two measurements was taken as the pre-administration pain threshold of the mouse. Each group was then administered (at doses and by delivery routes as above), 0.2 ml per 10 g body weight. The pain threshold of each group was measured 60 min and 120 min after administration. If a mouse remained unresponsive for more than 60 seconds on the hot plate, its pain threshold was calculated as 60 seconds.

[8] = single administration 0.4, 0.8 g/kg, ig
[9] = Female, 6 g/kg BW over 24 hours ig
[10] = Male, 6 g/kg BW over 24 hours ig

CC1(C)O[C@H]2CC[C@@]3(C)[C@@H]([C@@H](O)[C@H](O)[C@@H]3[C@@](C)(O)CC[C@@H]3OC(C)(C)[C@H]4CC[C@]3(C)O4)[C@]2(C)CC[C@H]1O [the compound, limaxol A]
Effect on spontaneous activity of mice ([1]; 0.4, 0.8 g/kg, ig): significantly reduce the spontaneous activity of mice | Number of spontaneous activities ([1]; After administration (45 min), high dose 0.8 g/kg ig): 84.8 ± 31.69*^Δ▴ per 10 min | Number of spontaneous activities ([1]; After administration (45 min), low dose 0.4 g/kg ig): 104.6 ± 42.12^Δ▴▴ per 10 min | Number of spontaneous activities ([1]; Before administration, high dose group): 145.5 ± 82.57 per 10 min | Number of spontaneous activities ([1]; Before administration, low dose group): 165.5 ± 69.20 per 10 min | Effect on number of mice that fell asleep, sub-threshold pentobarbital sodium ([2]; 0.4, 0.8 g/kg, ig): increase the number of mice that fell asleep | Number of the mice showing disappearance of righting reflex ([2]; high dose 0.8 g/kg ig): 8 per group | Number of the mice showing disappearance of righting reflex ([2]; low dose 0.4 g/kg ig): 11 per group | Duration of mice staying in companion box [3]: 334.8 ± 94.96 s | Duration of mice staying in companion box ([3]; 6 days): 385.2 ± 188.16 s | Psychological dependence, place preference test [3]: no tendency of psychological dependence | Times of writhing ([4]; high dose 0.8 g/kg ig): 39.6 ± 13.21 | Times of writhing ([4]; low dose 0.4 g/kg ig): 37.10 ± 15.69 | Analgesic effect, acetic acid writhing test [4, 8]: no obvious analgesic effect | Toxic reaction ([5]; 6 g/kg BW over 24 hours ig, 14 days of observation): no toxic reaction occurred | Weight after dosing [5, 9]: 24.99 ± 1.59 g | Weight change [5, 9]: 4.06 ± 2.34 g | Weight before dosing ([5]; Female): 20.93 ± 1.61 g | Weight after dosing [5, 10]: 26.60 ± 0.87 g | Weight change [5, 10]: 6.13 ± 1.46 g | Weight before dosing ([5]; Male): 20.73 ± 1.79 g | Visual observation of heart, liver, spleen, lung, kidney ([5]; after putting to death, 14 days): no abnormality was found | Maximum dose as multiple of the daily dose per the same body weight for a human adult ([5]; human adult dose 0.02 g/kg): 300 times | Maximum dose given the mice ([5]; ig, twice within 24 hours, no death): 6000 mg/kg | LD50 ([5]; mouse, in vivo, po): could not be detected | solubility ([6]; in acid and alkali): insoluble | solubility ([6]; in ethanol, ethyl acetate, trichloromethane (hot)): soluble | solubility ([6]; in methanol, acetone): easily soluble | solubility ([6]; in trichloromethane (cold)): slightly soluble | solubility ([6]; in water): insoluble | Pain threshold ([7]; 60 min, high dose 0.8 g/kg ig): 27.0 ± 11.32 s | Pain threshold ([7]; 60 min, low dose 0.4 g/kg ig): 25.4 ± 10.10 s | Pain threshold ([7]; 120 min, high dose 0.8 g/kg ig): 25.9 ± 12.52 s | Pain threshold ([7]; 120 min, low dose 0.4 g/kg ig): 29.3 ± 13.41 s | Pain threshold before administration ([7]; high dose group): 24.3 ± 5.51 s | Pain threshold before administration ([7]; low dose group): 23.7 ± 4.95 s | Analgesic effect, hot plate test [7, 8]: no obvious analgesic effect
